# Values quoted from earlier work in patent publication US20220378857A1, “COMPOSITION FOR THE CARDIOVASCULAR RISK REDUCTION” (NEILOS S.R.L., priority 2019, published 2022).
# Where two headings read alike, the source gives them in different places.
# [1] = 7.5 mg/die of active principle for 12 weeks
# [2] = 11.4 mg/die of monacolin for 8 weeks
smiles,measurement,setting,value
"CC[C@H](C)C(=O)O[C@H]1C[C@@H](C)C=C2C=C[C@H](C)[C@H](CC[C@@H]3C[C@@H](O)CC(=O)O3)[C@H]21 [monacolin, monacolin k]",reduction in the levels of LDL cholesterol,[1],22%
same,reduction in the levels of total cholesterol,[1],16%
same,reduction in the levels of LDL cholesterol,[2],26%
same,reduction in the levels of total cholesterol,[2],20%
